Experimental data as given in US11045457B2, “Piperidinyl-3-(aryloxy)propanamides and propanoates” (priority 2018, dated 2021).

How the values were obtained:
SSTR4 [1] = target: T1, SSTR4 (Homo sapiens (Human), UniProt P31391); assay: SSTR4 I-125 somatostatin competition binding assay (membranes from CHO-K1 cells overexpressing SSTR4); settings: competition with I-125 labeled somatostatin
Protocol: Membranes from CHO-K1 cells overexpressing SSTR4 are purchased from Perkin Elmer (catalog number ES-524-M400UA). Test compounds are suspended in DMSO and then diluted in assay buffer (25 mM HEPES pH 7.4, 10 mM MgCl2, 1 mM CaCl2), 0.5% BSA) plus 0.2 nM I-125 labeled somatostatin (Perkin Elmer catalog number NEX389). […] Then 1 μg of SSTR4 membranes in 50 μL assay buffer are added per well. The Plate is incubated for 60 minutes at room temperature. FilterMat A filters (Perkin Elmer catalog number 1450-421) are pre-soaked in 0.5% PEI (Sigma catalog number P3143). The contents of the assay plate are transferred to filters with a TomTech harvester and washed 5 times with 20 mM HEPES, 100 mM NaCl. The filters are dried in a microwave oven then transferred to sample bag containing a scintillator sheet (Perkin Elmer catalog number 1450-441). The scintillator sheets are melted to filters using a heat block. The filters are then read in a MicroBeta scintillation counter. Binding Ki curves are generated using Activity Base for Screening Data Management and the results are reported as pIC50.

SSTR4 [2] = target: T1, SSTR4; assay: Inhibition of forskolin stimulated cAMP in CHO-K1 cells overexpressing SSTR4; assay type: cell-based
Summary of the method: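 Read-out is a HTRF LANCE Ultra cAMP competition using Eu-labelled streptavidin and biotin-cAMP, incubated 60 min at room temperature. It followed a 30 min room-temperature exposure of Kreb's Ringer-washed cells to compound plus forskolin. Potency is expressed as pEC50.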

SSTR1 = SSTR1 (Homo sapiens (Human), UniProt P30872); assay: SSTR1 I-125 somatostatin competition binding assay for selectivity versus SSTR4 (membranes from CHO-K1 cells overexpressing SSTR1); settings: for SSTR1 Binding pIC50: competition with I-125 labeled somatostatin, CHO-K1 SSTR1 membranes;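 as to all read-outs here: Filter-based radioligand binding, bound label counted by scintillation after 60 min incubation at room temperature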
SSTR1, sequence (P30872 whole entry): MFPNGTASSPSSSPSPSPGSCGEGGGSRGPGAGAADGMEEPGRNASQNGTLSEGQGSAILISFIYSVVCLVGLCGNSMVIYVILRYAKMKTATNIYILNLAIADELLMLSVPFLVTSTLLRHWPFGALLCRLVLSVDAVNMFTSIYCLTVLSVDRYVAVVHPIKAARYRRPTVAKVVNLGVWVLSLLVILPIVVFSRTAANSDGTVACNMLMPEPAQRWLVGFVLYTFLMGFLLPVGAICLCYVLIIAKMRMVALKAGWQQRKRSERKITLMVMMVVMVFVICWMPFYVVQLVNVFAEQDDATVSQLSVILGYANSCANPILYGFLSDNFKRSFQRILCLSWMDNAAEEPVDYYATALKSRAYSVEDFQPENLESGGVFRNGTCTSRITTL
Protocol: Membranes from CHO-K1 cells overexpressing SSTR1 are purchased from Perkin Elmer (catalog number ES-520-M400UA). […] Then 10 μg of SSTR1 membranes in 50 μL assay buffer are added per well. The plate is incubated for 60 minutes at room temperature. […] The contents of the assay plate are transferred to filters with a TomTech harvester and washed 5 times with 20 mM HEPES, 100 mM NaCl. […] The scintillator sheets are melted to the filters using a heat block. The filters are then read in a MicroBeta scintillation counter. Binding Ki curves are generated using Activity Base for Screening Data Management and the results are reported as pIC50.

T1 sequence (P31391 whole entry): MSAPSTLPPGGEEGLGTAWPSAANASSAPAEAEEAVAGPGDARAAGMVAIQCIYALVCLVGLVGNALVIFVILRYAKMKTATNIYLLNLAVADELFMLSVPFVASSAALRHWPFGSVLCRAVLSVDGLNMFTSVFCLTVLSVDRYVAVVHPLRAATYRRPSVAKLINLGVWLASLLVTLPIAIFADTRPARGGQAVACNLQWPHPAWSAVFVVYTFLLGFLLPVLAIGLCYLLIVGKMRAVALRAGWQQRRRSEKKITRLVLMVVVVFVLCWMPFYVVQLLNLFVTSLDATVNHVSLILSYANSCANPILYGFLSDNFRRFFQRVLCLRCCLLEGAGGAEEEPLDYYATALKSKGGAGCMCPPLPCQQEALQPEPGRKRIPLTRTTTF

Row | SMILES | SSTR4 Binding pIC50 (SSTR4 [1]) | SSTR4 Activity pEC50 (SSTR4 [2]) | SSTR1 Binding pIC50 (SSTR1) | IC50 (SSTR4 [1]; read-out: SSTR4 Binding pIC50 (converted)) | EC50 (SSTR4 [2]; read-out: SSTR4 Activity pEC50 (converted)) | IC50 (SSTR1)
1 | CN1CC[C@H](NC(=O)C(C)(C)COc2ncccc2C(F)(F)F)[C@@H](F)C1 [Example 117, N-((3S,4S)-3-fluoro-1-methylpiperidin-4-yl)-2,2-dimethyl-3-((3-(trifluoromethyl)pyridin-2-yl)oxy)propanamide] | 6.7 | 7.6 | 4.5 |  |  | 
2 | CN1C[C@H](NC(=O)C(C)(C)COc2ncccc2OC(F)(F)F)C2(CC2)C1 [Example 150, (R)-2,2-dimethyl-N-(5-methyl-5-azaspiro[2.4]heptan-7-yl)-3-((3-(trifluoromethoxy)pyridin-2-yl)oxy)propanamide] | 7.3 | 8.2 | 5.6 |  |  | 
3 | C[C@@H]1C[C@H](NC(=O)C(C)(C)COc2ncccc2OC(F)(F)F)CCN1C [Example 179, N-((2R,4R)-1,2-dimethylpiperidin-4-yl)-2,2-dimethyl-3-((3-(trifluoromethoxy)pyridin-2-yl)oxy)propanamide] | 7.4 | 8.1 | 4.8 |  |  | 
4 | CN1C[C@@H](NC(=O)C(C)(C)COc2ncccc2C2CC2)[C@H](c2cnn(C)c2)C1 (relative stereo) [Example 22, trans-3-((3-cyclopropylpyridin-2-yl)oxy)-2,2-dimethyl-N-(1-methyl-4-(1-methyl-1H-pyrazol-4-yl)pyrrolidin-3-yl)propanamide] | 7.0 | 7.9 | 6.0 |  |  | 
5 | Cc1cccnc1OCC(C)(C)C(=O)N[C@@H]1CN(C)C[C@H]1c1cn(C)nc1C (relative stereo) [Example 23, trans-N-(4-(1,3-dimethyl-1H-pyrazol-4-yl)-1-methylpyrrolidin-3-yl)-2,2-dimethyl-3-((3-methylpyridin-2-yl)oxy)propanamide] | 6.6 | 8.0 | 5.8 |  |  | 
6 | C[C@@H]1CN(C)C[C@H]1NC(=O)C(C)(C)COc1ncccc1C(F)(F)F (racemic) [Example 165, N-(trans-1,4-dimethylpyrrolidin-3-yl)-2,2-dimethyl-3-((3-(trifluoromethyl)pyridin-2-yl)oxy)propanamide] |  |  |  | 0.158 µM | 0.0316 µM | 5.01 µM
7 | CN1CC(NC(=O)C(C)(C)COc2ncccc2C(F)(F)F)C2(CC2)C1 (stereo not drawn) [Example 138, 2,2-dimethyl-N-(5-methyl-5-azaspiro[2.4]heptan-7-yl)-3-((3-(trifluoromethyl)pyridin-2-yl)oxy)propanamide] | 7.2 | 8.0 | 5.7 |  |  | 
8 | CN1CCC(NC(=O)C(C)(C)COc2ccccc2C2CC2)CC1 [Example 70, 3-(2-cyclopropylphenoxy)-2,2-dimethyl-N-(1-methylpiperidin-4-yl)propanamide] | 7.6 | 8.4 | 5.5 |  |  | 
9 | Cc1ccccc1[C@@H]1CNCC[C@H]1N(C)C(=O)C(C)(C)COc1ncccc1C(F)(F)F (relative stereo) [Example 155, N,2,2-trimethyl-N-(trans-3-(o-tolyl)piperidin-4-yl)-3-((3-(trifluoromethyl)pyridin-2-yl)oxy)propanamide] | 7.2 | 8.0 | 5.4 |  |  | 
10 | Cc1nn(C)cc1[C@@H]1CN(C)C[C@H]1NC(=O)C(C)(C)COc1ncccc1C1CC1 (relative stereo) [Example 24, trans-3-((3-cyclopropylpyridin-2-yl)oxy)-N-(4-(1,3-dimethyl-1H-pyrazol-4-yl)-1-methylpyrrolidin-3-yl)-2,2-dimethylpropanamide] | 7.0 | 8.3 | 6.4 |  |  | 
11 | Cc1c([C@@H]2CN(C)C[C@H]2NC(=O)C(C)(C)COc2ncccc2C2CC2)cnn1C (relative stereo) [Example 27, trans-3-((3-cyclopropylpyridin-2-yl)oxy)-N-(4-(1,5-dimethyl-1H-pyrazol-4-yl)-1-methylpyrrolidin-3-yl)-2,2-dimethylpropanamide] | 7.6 | 8.9 | 6.9 |  |  | 
12 | Cc1cccnc1OCC(C)(C)C(=O)N[C@@H]1CN(C)C[C@H]1c1cnn(C)c1C (relative stereo) [Example 26, trans-N-(4-(1,5-dimethyl-1H-pyrazol-4-yl)-1-methylpyrrolidin-3-yl)-2,2-dimethyl-3-((3-methylpyridin-2-yl)oxy)propanamide] | 7.3 | 8.6 | 6.1 |  |  | 
13 | CN1CCC(NC(=O)C(C)(C)COc2ncccc2OC(F)(F)F)CC1 [Example 92, 2,2-dimethyl-N-(1-methylpiperidin-4-yl)-3-((3-(trifluoromethoxy)pyridin-2-yl)oxy)propanamide] | 6.8 | 7.7 | 4.8 |  |  | 
14 | CC(C)[C@@H]1CN(C)C[C@H]1NC(=O)C(C)(C)COc1ncccc1OC(F)(F)F (relative stereo) [Example 16, trans-N-(4-isopropyl-1-methylpyrrolidin-3-yl)-2,2-dimethyl-3-((3-(trifluoromethoxy)pyridin-2-yl)oxy)propanamide] | 7.2 | 7.8 | 5.5 |  |  | 
15 | CN1CCC(NC(=O)C(C)(C)COc2ccccc2Br)CC1 [Example 67, 3-(2-bromophenoxy)-2,2-dimethyl-N-(1-methylpiperidin-4-yl)propanamide] | 7.4 | 8.1 | 5.1 |  |  | 
16 | CN1CC[C@@H](NC(=O)C(C)(C)COc2ccccc2C2CC2)C1 [Example 71, (R)-3-(2-cyclopropylphenoxy)-2,2,-dimethyl-N-(1-methylpyrrolidin-3-yl)propanamide] | 7.3 | 8.3 | 5.3 |  |  | 
17 | CN1CC[C@H](NC(=O)C(C)(C)COc2ncccc2C(F)(F)F)[C@H](c2ccccc2)C1 (relative stereo) [Example 163, 2,2-dimethyl-N-(cis-1-methyl-3-phenylpiperidin-4-yl)-3-((3-(trifluoromethyl)pyridin-2-yl)oxy)propanamide] | 6.1 | 7.3 | 5.2 |  |  | 
18 | CC(C)(COc1ccccc1Cl)C(=O)NC1CCNCC1 [Example 213, 3-(2-chlorophenoxy)-2,2-dimethyl-N-(piperidin-4-yl)propanamide] | 7.6 | 8.7 | 4.6 |  |  | 
